Assay: Comparison of pure TQ with Nigella sativa oil
Conditions: administration of pure TQ
Protocol: Nevertheless, some embodiments of the invention may include N. sativa oil and/or its essential oil, either as the sole or primary active or in combination with EPA and/or GLA. […] Thus, N. sativa essential oil may provide a therapeutic or prophylactic effect in some embodiments of the invention, particularly in those embodiments in which one or more other actives (e.g., EPA, GLA, etc.) are also administered. Similarly, embodiments of the invention may include derivatives and/or precursors of TQ, including polymers of TQ.

Structure (SMILES): CC1=CC(=O)C(C(C)C)=CC1=O [TQ, 2-isopropyl-5-methylbenzo-1,4-quinone]
- effectiveness relative to Nigella sativa oil: more effective than the administration of Nigella sativa oil

Source: patent US20140213558A1, “TREATMENT OF INFLAMMATORY DISEASE OR DISORDER AND COMPOSITIONS THEREFOR” (CREDE OILS (PTY) LTD, priority 2011, published 2014)
